# Read-outs that look alike come from different tables or passages of the source.
# Assays:
# [1] = test system: Staphylococcus aureus (NCIM-2901); assay: In vitro antibacterial activity (MIC100, two fold serial dilution, NCCLS); assay type: cell-based; conditions: for MIC: Staphylococcus aureus
# Protocol: (§1) All the synthesized compounds 4(a–f) and 6(a–f) were screened for their in vitro antibacterial activity against Staphylococcus aureus (NCIM-2901), Escherichia coli 1411 (standard laboratory strains) and Escherichia coli SM1411 (an acrAB deficient derivative of 1411). Minimum inhibitory concentration (MIC100) values were determined using methods recommended by National Committee for Clinical Laboratory Standards (NCCLS). Dimethyl sulfoxide (DMSO) was used as solvent control.
# (§2) All the synthesized compounds 4(a–f) and 6(a–f) were screened for their in vitro antibacterial activity against Staphylococcus aureus (NCIM-2901) and Escherichia coli 1411 (standard laboratory strains) and Escherichia coli SM1411 (an acrAB deficient derivative of 1411). Minimum inhibitory concentration (MIC100) values were determined using the method recommended by National Committee for Clinical Laboratory Standards (NCCLS). In vitro antibacterial activities of the synthesized compounds 4(a–f) and 6(a–f) were tested in Nutrient Broth (NB) for Bacteria by the two fold serial dilution method. Seeded broth (broth containing microbial spores) was prepared in NB from 24 h old bacterial cultures on nutrient agar (Hi-media) at 37 ± 1 °C. The bacterial suspension was adjusted with sterile saline to a concentration of […]. The synthesized compounds and standard drug D-cycloserine were prepared by two fold serial dilutions to obtain the required concentrations. The tubes were incubated in BOD incubators at 37 ± 1 °C for bacteria. The MICs were recorded by visual observations after 24 h (for bacteria) of incubation.
# [2] = test system: Escherichia coli SM1411 (an acrAB deficient derivative of 1411); assay: as above; assay type: cell-based; conditions: 24 h, read-out: MIC100
# Protocol: as §1, §2
# Escherichia coli 1411 = assay: as above; assay type: cell-based; conditions: read-out: MIC100
# Protocol: as §1, §2
# A. flavus = assay: In vitro antifungal activity (MIC100, CLSI/NCCLS); assay type: cell-based; conditions: Aspergillus flavus; A. fla.; average of three readings; read-out: MIC 100
# Protocol: (§3) The newly synthesized derivatives 4(a–f) and 6(a–f) were screened for their in vitro antifungal activity against different yeast and filamentous fungal pathogens. Minimum inhibitory concentration (MIC100) values for in vitro antifungal activity were determined by the methods recommended by National Committee for Clinical Laboratory Standards (NCCLS). Miconazole was used as standard drug. Dimethyl sulfoxide (DMSO) was used as solvent control.
# (§4) In vitro antifungal activity was determined as per CLSI (formerly, NCCLS) guidelines. […] The medium yeast nitrogen base was dissolved in phosphate buffer pH 7 and it was autoclaved at 110 °C for 10 min. With each set a growth control without the antifungal agent and solvent control DMSO were included. The fungal strains were freshly sub cultured on to Sabouraud dextrose agar (SDA) and incubated at 25 °C for 72 h. The fungal cells were suspended in sterile distilled water and diluted to get 10^5 cells/mL. Further, ten microlitres of the standardized suspension was inoculated onto the control plates and the media incorporated with the antifungal agents. The inoculated plates were incubated at 25 °C for 48 h. The readings were taken at the end of 48 h and 72 h. The MIC was the lowest concentration of drug preventing growth of macroscopically visible colonies on drug containing plates when there was visible growth on the drug free control plates.
# Fusarium oxysporum = assay: In vitro antifungal activity (MIC100, CLSI/NCCLS); assay type: cell-based; conditions: F. oxy., average of three readings, read-out: MIC 100
# Protocol: as §3, §4
# Aspergillus fumigates = assay: In vitro antifungal activity (MIC100, CLSI/NCCLS); assay type: cell-based; conditions: A. fum., average of three readings, read-out: MIC 100
# Protocol: as §3, §4
# Aspergillus niger = assay: In vitro antifungal activity (MIC100, CLSI/NCCLS); assay type: cell-based; conditions: A. nig., average of three readings, read-out: MIC 100
# Protocol: as §3, §4
# Candida albicans = assay: In vitro antifungal activity (MIC100, CLSI/NCCLS); assay type: cell-based; conditions: C. alb., average of three readings, read-out: MIC 100
# Protocol: as §3, §4
# Candida glabrata = assay: In vitro antifungal activity (MIC100, CLSI/NCCLS); assay type: cell-based; conditions: Nakaseomyces glabratus; C. glab.; average of three readings; read-out: MIC 100
# Protocol: as §3, §4
# Cryptococcus neoformans = assay: In vitro antifungal activity (MIC100, CLSI/NCCLS); assay type: cell-based; conditions: C. neo., average of three readings, read-out: MIC 100
# Protocol: as §3, §4
# DdlB from E.coli = DdlB from E.coli (Escherichia coli, UniProt P07862); assay: D-Alanine-D-alanine ligase (DdlB) enzyme inhibition, malachite green method; assay type: biochemical; conditions: 37 °C, 30 min incubation, 5% DMSO
# Protocol: The key enzyme involved in the peptidoglycan biosynthesis is D-alanine-D-alanine ligase (Ddl), making it an important target for drug discovery. Inhibition of DdlB as an essential enzyme in either Gram-positive or Gram-negative organisms leads to the loss of cell shape and integrity followed by bacterial death. The synthesized derivatives 4(a–f) and 6(a–f) were tested for their inhibitory activity on DdlB from E.coli. The results are presented as IC50 values.
# The D-Ala-adding activity of DdlB ligase was monitored by the detection of orthophosphate generated during the reaction based on the colorimetric malachite green method described by Walsh et al.. […] All the compounds were soluble in the assay mixture containing 5% DMSO. After 30 min of incubation, 100 µL Biomol reagent was added. After 5 min, absorbance was read at 650 nm. Residual activity was calculated with respect to a similar assay without inhibitor. To exclude possible non-specific (promiscuous) inhibitors, representative compounds 4(a–f) and 6(a–f) were also tested in the presence of Tween (0.003%), Triton X-114 (0.005%), and SDS (420 µM), as described by McGovern et al.. No significant differences were found when compared to measurements without detergents.
# [3] = NCIM2901, 24 h, read-out: MIC100, S. aureus NCIM-2901, average of three readings
SMILES,"MIC [1, 3] [µg/mL]",MIC [2] [µg/mL],"MIC (Escherichia coli 1411; Escherichia coli, 1411, 24 h) [µg/mL]",MIC (A. flavus) [µg/mL],MIC (Fusarium oxysporum) [µg/mL],MIC (Aspergillus fumigates) [µg/mL],MIC (Aspergillus niger) [µg/mL],MIC (Candida albicans) [µg/mL],MIC (Candida glabrata) [µg/mL],MIC (Cryptococcus neoformans) [µg/mL],IC50 (DdlB from E.coli) [µM],melting point [°C],"MIC100 ([1]; S. aureus NCIM-2901, 24 h, average of three readings) [µg/mL]","MIC ([1]; NCIM2901, S. aureus NCIM-2901, 24 h, average of three readings, read-out: MIC100) [µg/mL]","MIC (Escherichia coli 1411; Escherichia coli, E. coli 1411, 24 h, average of three readings) [µg/mL]"
"CCOC(=O)C1=C(C)NC(=S)NC1c1coc2ccc(F)cc2c1=O (centres unmarked) [Compound 4f, Ethyl 4-(6-fluoro-4-oxo-4H-chromen-3-yl)-6-methyl-2-thioxo-1,2,3,4-tetrahydropyrimidine-5-carboxylate]",72,44,48,34,48,55,34,46,44,30,280,228 to 230,–,–,–
"CC1=C(C(=O)NN)C(c2coc3ccccc3c2=O)NC(=O)N1 (centres unmarked) [Compound 6a, 6-Methyl-2-oxo-4-(4-oxo-4H-chromen-3-yl)-1,2,3,4-tetrahydropyrimidine-5-carbohydrazide]",66,32,34,68,76,60,55,78,68,58,127,256 to 258,–,–,–
"CC1=C(C(=O)NN)C(c2coc3ccccc3c2=O)NC(=S)N1 (centres unmarked) [Compound 6b, 6-Methyl-4-(4-oxo-4H-chromen-3-yl)-2-thioxo-1,2,3,4-tetrahydropyrimidine-5-carbohydrazide]",76,34,34,60,54,58,48,64,60,50,124,198 to 200,–,–,–
"CC1=C(C(=O)NN)C(c2coc3ccc(F)cc3c2=O)NC(=S)N1 (centres unmarked) [Compound 6d, 4-(6-Fluoro-4-oxo-4H-chromen-3-yl)-6-methyl-2-thioxo-1,2,3,4-tetrahydropyrimidine-5-carbohydrazide]",32,18,16,30,44,52,28,44,40,28,111,146 to 148,40,–,–
"COc1ccc2occ(C3NC(=O)NC(C)=C3C(=O)NN)c(=O)c2c1 (centres unmarked) [Compound 6e, 4-(6-Methoxy-4-oxo-4H-chromen-3-yl)-6-methyl-2-oxo-1,2,3,4-tetrahydropyrimidine-5-carbohydrazide]",156,58,> 60,16,30,32,18,28,30,16,315,208 to 210,–,–,–
"N[C@@H]1CON=C1O [D-Cycloserine, reference compound]",–,16,–,–,–,–,–,–,–,–,276,–,–,32,16

# Reference: PMC6017654, “Ionic Liquid-Promoted Synthesis of Novel Chromone-Pyrimidine Coupled Derivatives, Antimicrobial Analysis, Enzyme Assay, Docking Study and Toxicity Study” (Molecules : A Journal of Synthetic Chemistry and Natural …, 2018)
